Test results taken from US20030082135A1, “Pathway of RANTES-mediated chemokine synthesis in astrocytes and methods of use therefor” (priority 2001, published 2003).
Where no end group is shown, it is not given here.

Legend:
[1] = tested on: primary neonatal mouse astrocyte cultures; test: RNase protection assay (RPA) for chemokine/cytokine transcripts in astrocyte cultures; format: cell-based; settings: for expression of TNF-α, RANTES, KC, MIP-1α, MIP-2, and MCP-1 transcripts: BALB/cJ neonatal astrocytes, chemokine for 6 h; for expression of transcripts for MIP-1α: PKA inhibitors alone, 3 h
Procedure: Astrocyte isolation and culture. […] RNA isolation and RNase protection assay (RPA). […] RNase protection assays (RPA) for chemokine message were conducted with multi-probe templates according to the manufacture's protocol (RiboQuant assay kit, BD-PharMingen, San Diego, Calif.). Gels were scanned and radioactive bands quantitated using a phosphoimager (Molecular Dynamics, Sunnyvale, Calif.). Levels of uniformly expressed housekeeping genes large ribosomal subunit protein 32-3A (L32) or glyceraldehyde-3-phosphate dehydrogenase (GAPDH), were used for normalization. The value of each chemokine receptor band divided by the value of the indicated housekeeping gene band in the same sample yielded the relative intensity. Normalized receptor expression represents the ratio of the relative intensity following treatment with chemokine versus the relative intensity of medium alone. Treatment with pharmacological inhibitors. Astrocytes were washed and resuspended in serum-and insulin-free complete medium and starved overnight. Cells were treated at 37° C. for 1 h with 100 ng/ml Pertussis toxin (PTx) before addition of RANTES or IL-1. […] The cells were harvested after a 3 h incubation with RANTES; RNA was prepared and assayed by RPA.

[2] = tested on: MEK, ERK1/2, p90RSK, p38, SAPK/JNK phosphorylation in astrocytes; test: Western blotting of phosphorylated MAP kinase pathway proteins in astrocyte lysates; format: cell-based, mouse
Procedure: SDS-PAGE and Western blotting. Astrocytes were treated for the indicated time with media or 100 ng/ml RANTES, eotaxin, or other materials as indicated. Cells (3×10^5 in Examples 1-3, or 2×10^4 in later Examples) were resuspended in 100 μl buffer (50 mM HEPES, pH 7.5, 150 mM NaCl, 2 mM EDTA, 2 mM EGTA, 1% Triton X-100, 50 mM Sodium fluoride, 5 mM Sodium pyrophosphate, 50 mM Sodium β-glycerophosphate, 1 mM Sodium Ortho-vanadate, 1 mM DTT, 1 mM PMSF, 10 μg/ml Leupeptin, and 10 μg/ml Aprotinin). Protein concentration of the whole cell extract was determined by BCA protein assay kit (Pierce, Rockford, Ill.). Samples (10 μg) were loaded and separated on a 10% SDS-polyacrylamide gel. After transfer to Hybond ECL nitrocellulose membrane (Amersham Pharmacia Biotech Inc, Piscataway, N.J.) or Zeta-probe blotting membranes (Bio-Rad, Richmond Calif.) blots were blocked overnight with 5% BSA at 4° C., and probed with the antibody indicated. Antibody against unphosphorylated or phosphorylated erk (Cell Signaling, Beverly, Mass.) was used at 1 μg/ml. Appropriate anti-immunoglobulin reagents were used to develop the blots by enhanced chemiluminescence (Amersham Pharmacia Biotech Inc, Piscataway, N.J.).
Little is known about the signaling mechanisms involved in astrocyte respones to chemokines. To examine components of the RANTES signal transduction pathway, phosphorylation of the MAP kinase kinase (MEK) and mitogen activated protein (MAP) kinases was examined. To minimize basal kinase activity, astrocytes were starved of serum for at least 3 h before treatment with chemokine. Whole cell lysates were separated by SDS-PAGE and examined by Western blot. Antibodies that specifically react with phosphorylated MEK or phosphorylated extracellular signal-related kinase (ERK) were used to detect the active kinases.

[3] = tested on: intracellular cAMP in astrocytes; test: Intracellular cAMP in astrocytes (EIA); format: cell-based, mouse; settings: 1 μM forskolin, 1 h
Procedure: FIG. 8 is a set of bar graphs showing that RANTES reduced intracellular cAMP accumulation in astrocytes. Panel A. Astrocytes were treated with the indicated doses of RANTES or TCA4 for 5 min. Intracellular cAMP was detected as described in Materials and Methods. Values represent the mean±S.E.M of triplicate experiments. Panel B. Kinetics of intracellular cAMP levels. Astrocytes were treated with 100 ng/ml RANTES for indicated times. Panel C. RANTES inhibited forskolin-induced intracellular cAMP accumulation. Astrocytes were pretreated with 1 μM forskolin for 1 h then stimulated with the indicated amount of RANTES for 5 min. Intracellular cAMP was determined by EIA. Values are presented as relative cAMP level and represent the mean±S.E.M. of triplicate experiments.
To further elucidate the RANTES-mediated signaling pathway in astrocytes, intracellular cAMP levels were evaluated following chemokine stimulation. Primary mouse astrocytes were incubated with the indicated dose of RANTES or the negative control chemokine, TCA4 for 5 min and monitored for cAMP levels. RANTES (100 ng/ml) decreased intracellular cAMP levels by 68% in a dose dependent fashion (FIG. 8A).

PKA = PKA activity assay on lysates of treated astrocytes; format: cell-based, mouse; settings: 1 μM forskolin, 500 μM db-cAMP or 500 μM 8-bromo-cAMP, 1 h
Procedure: PKA activity assay. PKA activity was determined using a commercially available kit (Calbiochem, San Diego, Calif.) according to manufacturer's recommendations. Primary mouse astrocytes were grown in 6-well plates and then stimulated as described and lysed in 100 μl buffer (same buffer used for Western blotting) for 30 min. Five μl of the lysates were incubated with 20 μl PKA reaction mixture at 30° C. for 30 min. The reaction was terminated by adding 10 μl stop solution and ^32P radioactivity was counted.

[4] = tested on: CXCR4, CX3CR1, CCR1, CCR5 transcripts in astrocytes; test: RPA for chemokine receptor transcripts in astrocytes; format: cell-based, mouse
Procedure: RNA isolation and RNase protection assay (RPA). RNA was prepared as in Luo, Y., et al. 1999. J Immunol 163:3985. RNase protection assays (RPA) for chemokine message were conducted with multi-probe templates according to the manufacture's protocol (RiboQuant assay kit, BD-PharMingen, San Diego, Calif.). Gels were scanned and radioactive bands quantitated using a phosphoimager (Molecular Dynamics, Sunnyvale, Calif.). Levels of uniformly expressed housekeeping genes large ribosomal subunit protein 32-3A (L32) or glyceraldehyde-3-phosphate dehydrogenase (GAPDH), were used for normalization. The value of each chemokine receptor band divided by the value of the indicated housekeeping gene band in the same sample yielded the relative intensity. Normalized receptor expression represents the ratio of the relative intensity following treatment with chemokine versus the relative intensity of medium alone.
Treatment with the RANTES-related chemokines RANTES or eotaxin, or with TNF-α also found to down-regulate expression of CX3CR1 transcripts. In addition, CXCR4 mRNA levels were decreased, while the levels of CCR1 transcripts were elevated. In contrast, little or no regulation of CCR5 was noted. The pooled results of 3-4 experiments indicate eotaxin caused an average 60% decrease in CXCR4 (P less than 0.01) and a 70% decrease in CX3CR1 mRNA (P less than 0.02) (FIG. 8.B). The effects of RANTES stimulation were similar with an average 70 and 90% reduction in CXCR4 and CX3CR1 transcripts, respectively (P less than 0.01).

murine KC promoter = test: KC promoter luciferase reporter in transfected astrocytes; format: cell-based, mouse; settings: U0126 indicated amounts or 5 μM SB203580 plus 100 ng/ml RANTES, 24 h
Excerpt: Plasmids, transient transfection, and luciferase activity assay. The KC reporter plasmid was constructed by using a luciferase reporter gene pGL-3 basic vector (Promega, Madison, Wis.) driven by mouse KC promoter (−2878/+43). Wild-type p90RSK expression (WT pKH3) and dominant negative p90RSK expression (ΔΔ RSK pKH3) plasmids were obtained from Dr. John Blenis, Harvard Medical School. Astrocytes were transiently transfected with Lipofectamine 2000 reagent (Life Technologies, Gaithersburg, Md.) according to the manufacturer's protocol. After 24 h, the cells were stimulated with RANTES in absence or presence of the indicated inhibitor, and luciferase activity was determined after an additional 24 h, by the procedure according to the manufacturer (Promega, Madison, Wis.). Relative luciferase activity was normalized for cell lysate protein concentration as determined by BCA protein assay kit (Pierce, Rockford, Ill.). The Relative Fold Induction is the relative intensity of the experimental sample divided by the relative intensity of the medium control.
To establish whether RANTES up-regulation of chemokine production is mediated by activation of promoter elements, primary astrocyte cultures were transiently transfected with a murine KC promoter-luciferase construct, and reporter activity was monitored after RANTES treatment.

SDF-1α
expression of TNF-α, RANTES, KC, MIP-1α, MIP-2, and MCP-1 transcripts [1]: no effect

CN(C)CCCn1cc(C2=C(c3c[nH]c4ccccc34)C(=O)NC2=O)c2ccccc21 [GF109203, reference compound]
MEK phosphorylation ([2]; protein kinase C inhibitor control, 20 min): failed to stimulate

Nc1ncnc2c1nc(Br)n2C1OC2COP(O)(=S)OC2C1O (stereo not shown) [Rp-8-bromo-cAMP, reference compound]
expression of transcripts for MIP-1α [1]: induced

C=C[C@@]1(C)CC(=O)[C@]2(O)[C@@]3(C)[C@@H](O)CCC(C)(C)[C@@H]3[C@H](O)[C@H](OC(C)=O)[C@@]2(C)O1 [forskolin, reference compound]
increase of intracellular cAMP levels [3]: about 4 fold

PKI: protein kinase A inhibitor 14-22 amide (SGRTGRRNA-NH2; UniProt P61925 14-22, looked up, fragment) [reference compound]
expression of transcripts for MIP-1α [1]: induced

CCCC(=O)Nc1ncnc2c1ncn2[C@@H]1O[C@@H]2COP(=O)(O)O[C@H]2[C@H]1OC(=O)CCC [db-cAMP, dibutyryl cAMP, reference compound]
effect of cAMP analogue alone on transcription ([1]; 500 μM, no RANTES): Neither cAMP analogue alone had any effect
effects on KC and MIP-2 transcription ([1]; 500 μM, peaking at 2 h): weak and transient
effect on astrocyte PKA activity (PKA): activated

O=c1c(-c2ccc(O)cc2)coc2cc(O)cc(O)c12 [Genistein, genistein, reference compound]
effect on RANTES-induced chemokine message ([1]; U0126 50 μM, genistein 100 μM, wortmannin 1 μM, added 30 min prior to chemokine, 3 h RANTES): block chemokine message

MCP-1: recombinant mouse CC-chemokine, purchased from BD-PharMingen
expression of TNF-α, RANTES, KC, MIP-1α, MIP-2, and MCP-1 transcripts [1]: no effect
modulation of expression of any of the receptor transcripts examined [4]: did not significantly modulate

TNF-α
CX3CR1 and CXCR4 expression [4]: reduced
change in CCR5 transcripts [4]: little or no change
increase of CCR1 transcripts [4]: 55%

C[S+]([O-])c1ccc(-c2nc(-c3ccncc3)c(-c3ccc(F)cc3)[nH]2)cc1 (stereo not shown) [SB203580, reference compound]
effect on RANTES-mediated transcription of chemokine RNA [1]: failed to modulate
effect on erk1/2 and RSK phosphorylation induced by H-89 ([2]; 10-50 μM U0126 or 5 μM SB203580, 10 μM H-89 for 20 min): fail to block
effect on RANTES-induced KC reporter activity (murine KC promoter): did not inhibit

O=S(=O)(NCCNC/C=C/c1ccc(Br)cc1)c1cccc2cnccc12 [H-89, reference compound]
expression of transcripts for MIP-1α [1]: induced
MEK, erk1/2 and RSK phosphorylation ([2]; indicated doses, 20 min, no RANTES): induced

B1: MIP-1β: recombinant mouse CC-chemokine, purchased from R&D System (protein, UniProt P14097 24-92, looked up)
C-C motif chemokine 4: APMGSDPPTSCCFSYTSRQLHRSFVMDYYETSSLCSKPAVVFLTKRGRQICANPSEPWVTEYMSDLELN
expression of TNF-α, RANTES, KC, MIP-1α, MIP-2, and MCP-1 transcripts [1]: up-regulated

B2: MIP-1α: recombinant mouse CC-chemokine, purchased from R&D System (protein, UniProt P10855 24-92, looked up)
C-C motif chemokine 3: APYGADTPTACCFSYSRKIPRQFIVDYFETSSLCSQPGVIFLTKRNRQICADSKETWVQEYITDLELNA
expression of TNF-α, RANTES, KC, MIP-1α, MIP-2, and MCP-1 transcripts [1]: up-regulated

B3: IL-1: recombinant murine IL-1β, purchased from Invitrogen (protein, UniProt P10749 118-269, looked up)
Interleukin-1 beta: VPIRQLHYRLRDEQQKSLVLSDPYELKALHLNGQNINQQVIFSMSFVQGEPSNDKIPVALGLKGKNLYLSCVMKDGTPTLQLESVDPKQYPKKKMEKRFVFNKIEVKSKVEFESAEFPNWYISTSQAEHKPVFLGNNSGQDIIDFTMESVSS
activation of the three MAP kinases (ERK1/2, SAPK/JNK, p38) ([2]; 20 ng/ml IL-1β, 20 min): activated
